# Measurements published in US20070264199A1, “Magnetic nanoparticle composition and methods for using the same” (priority 2005, published 2007).
# Where two headings read alike, the source gives them in different places.
# Columns and labels:
# [1] = Drug loading in magnetic nanoparticles; format: physicochemical; conditions: for Total Drug Loading (Mean ± SEM): total drug added 10.0 % w/w, n = 2 or 3
# Procedure: For incorporation in nanoparticles, hydrochloride salt of the drug (DOX.HCl) was converted to water-insoluble base (DOX) using established methods (Yolles, et al. (1978) Acta Pharm. Suec. 15:382-388). […] Stirring was continued overnight (˜16 hours) to allow partitioning of the drug into the oleic acid shell surrounding iron-oxide nanoparticles. Drug-loaded nanoparticles were separated from the unentrapped drug using a magnet (12200 Gauss; Edmund Scientific, Tonawanda, N.Y.). Nanoparticles were washed twice by re-suspending in distilled water and separated using a magnetic field. […] For drug extraction, 2 mL of 12.5% volume/volume methanolic solution in chloroform was added to the dried sample. The samples were shaken for 24 hours (Environ shaker, model no. 3527; Lab-Line Instruments, Melrose Park, Ill.). Since DOX has greater solubility in this combination of solvents than in methanol or chloroform alone, it was used for the extraction. Nanoparticles were centrifuged for 10 minutes at 16,000 g using an EPPENDORF® microcentrifuge (5417R; Eppendorf-Netheler-Hinz-GmbH, Hamburg, Germany). […] VARIAN® Inc., Walnut Creek, Calif.) at λex=485 nm and λem=591 nm. A standard plot was prepared under identical conditions to calculate the amount of drug loaded in the nanoparticles. There was no further increase in the amount of drug extracted when nanoparticles were kept for extraction for more than 24 hours. […] The cap was removed and ethanol was allowed to evaporate overnight. Magnetite nanoparticles were separated from the free drug using a magnetic field and particles were washed two times with distilled water.
# [2] = Antiproliferative IC50 of paclitaxel, doxorubicin and combination, in solution or in magnetic nanoparticles
# MCF-7 cells = assay: Confocal laser scanning microscopy of drug uptake and localization; format: cell-based; conditions: 2 hours of incubation
# Procedure: MCF-7 cells were seeded in Bioptechs plates (Bioptechs, Butler, Pa.) at 50,000 cells/plate in 1 mL serum-containing medium 24 hours prior to the experiment. A dispersion of drug-loaded or void nanoparticles and drug solution (10 μM) were prepared in cell-culture medium as described herein. […] Cells were washed three times with PBS before imaging them under a confocal microscope (Zeiss Confocal microscope LSM410 equipped with argon-krypton laser; Zeiss, Thornwood, N.Y.) at λex=488 nm and a long-pass filter with a cut-on filter of 515 nm for detecting the emission light.
SMILES,Paclitaxel Loaded ([1]; added paclitaxel 5.0 % w/w + doxorubicin 5.0 % w/w) [% w/w],"Paclitaxel Loaded ([1]; added paclitaxel 10.0 % w/w, doxorubicin 0.0) [% w/w]",Total Drug Loading (Mean ± SEM) [1] [% w/w],IC50 ([2]; read-out: IC50 Nanoparticle) [µg/mL],IC50 ([2]; read-out: IC50 Soluble) [µg/mL],Doxorubicin Loaded ([1]; added doxorubicin 5.0 % w/w + paclitaxel 5.0 % w/w) [% w/w],"Doxorubicin Loaded ([1]; added doxorubicin 10.0 % w/w, paclitaxel 0.0) [% w/w]",intracellular localization of drug (MCF-7 cells)
CC(=O)O[C@H]1C(=O)[C@@]2(C)[C@H]([C@H](OC(=O)c3ccccc3)[C@]3(O)C[C@H](OC(=O)[C@H](O)[C@@H](NC(=O)c4ccccc4)c4ccccc4)C(C)=C1C3(C)C)[C@]1(OC(C)=O)CO[C@@H]1C[C@@H]2O [Paclitaxel],4.8,9.5,9.5,0.0106 ± 0.0006,0.0098 ± 0.0005,,,
COc1cccc2c1C(=O)c1c(O)c3c(c(O)c1C2=O)C[C@@](O)(C(=O)CO)C[C@@H]3O[C@H]1C[C@H](N)[C@H](O)[C@H](C)O1 [Doxorubicin],,,8.2,0.795 ± 0.177,0.103 ± 0.0178,3.7,8.2,nuclear localization
